Tests used:
[1] = biological target: T1, Myosin-IIIb (Homo sapiens) (UniProt Q8WXR4); settings: at 10 µM
T1 sequence (whole entry): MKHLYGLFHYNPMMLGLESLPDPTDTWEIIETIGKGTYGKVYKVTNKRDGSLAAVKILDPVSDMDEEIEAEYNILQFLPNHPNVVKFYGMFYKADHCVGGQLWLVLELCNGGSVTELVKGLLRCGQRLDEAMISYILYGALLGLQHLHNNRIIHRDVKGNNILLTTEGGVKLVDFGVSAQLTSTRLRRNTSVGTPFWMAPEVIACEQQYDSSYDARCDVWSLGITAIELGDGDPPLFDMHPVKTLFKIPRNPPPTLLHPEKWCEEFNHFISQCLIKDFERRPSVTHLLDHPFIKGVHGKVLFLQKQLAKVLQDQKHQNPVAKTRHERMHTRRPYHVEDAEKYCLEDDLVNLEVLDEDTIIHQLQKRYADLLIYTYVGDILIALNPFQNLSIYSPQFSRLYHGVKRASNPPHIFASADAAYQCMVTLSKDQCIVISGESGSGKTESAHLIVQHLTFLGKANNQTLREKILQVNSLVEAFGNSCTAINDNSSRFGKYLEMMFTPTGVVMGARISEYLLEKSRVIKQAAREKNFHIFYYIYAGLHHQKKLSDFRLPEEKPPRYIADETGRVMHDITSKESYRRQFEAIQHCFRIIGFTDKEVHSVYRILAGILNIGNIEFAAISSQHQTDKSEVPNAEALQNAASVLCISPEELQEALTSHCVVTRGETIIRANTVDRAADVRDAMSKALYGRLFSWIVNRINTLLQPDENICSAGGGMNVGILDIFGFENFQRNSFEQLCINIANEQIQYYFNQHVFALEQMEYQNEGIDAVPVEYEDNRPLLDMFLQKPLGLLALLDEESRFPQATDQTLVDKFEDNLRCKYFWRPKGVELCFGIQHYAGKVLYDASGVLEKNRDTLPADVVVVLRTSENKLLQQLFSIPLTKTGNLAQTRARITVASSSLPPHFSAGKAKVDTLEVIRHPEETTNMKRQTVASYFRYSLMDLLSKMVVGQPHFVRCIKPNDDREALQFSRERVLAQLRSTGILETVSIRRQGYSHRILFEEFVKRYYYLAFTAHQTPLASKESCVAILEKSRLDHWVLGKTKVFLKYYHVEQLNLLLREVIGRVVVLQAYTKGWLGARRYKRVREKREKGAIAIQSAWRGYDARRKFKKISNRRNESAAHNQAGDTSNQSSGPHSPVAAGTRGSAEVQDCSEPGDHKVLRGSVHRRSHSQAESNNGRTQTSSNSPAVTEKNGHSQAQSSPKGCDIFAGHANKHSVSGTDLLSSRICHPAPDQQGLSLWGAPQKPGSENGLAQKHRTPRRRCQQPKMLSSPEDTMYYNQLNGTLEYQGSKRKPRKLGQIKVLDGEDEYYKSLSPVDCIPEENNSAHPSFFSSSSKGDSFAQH

[2] = biological target: T2, Ankyrin repeat and protein kinase domain-containing protein 1 (Homo sapiens) (UniProt Q8NFD2); settings: at 10 µM
T2 sequence (whole entry): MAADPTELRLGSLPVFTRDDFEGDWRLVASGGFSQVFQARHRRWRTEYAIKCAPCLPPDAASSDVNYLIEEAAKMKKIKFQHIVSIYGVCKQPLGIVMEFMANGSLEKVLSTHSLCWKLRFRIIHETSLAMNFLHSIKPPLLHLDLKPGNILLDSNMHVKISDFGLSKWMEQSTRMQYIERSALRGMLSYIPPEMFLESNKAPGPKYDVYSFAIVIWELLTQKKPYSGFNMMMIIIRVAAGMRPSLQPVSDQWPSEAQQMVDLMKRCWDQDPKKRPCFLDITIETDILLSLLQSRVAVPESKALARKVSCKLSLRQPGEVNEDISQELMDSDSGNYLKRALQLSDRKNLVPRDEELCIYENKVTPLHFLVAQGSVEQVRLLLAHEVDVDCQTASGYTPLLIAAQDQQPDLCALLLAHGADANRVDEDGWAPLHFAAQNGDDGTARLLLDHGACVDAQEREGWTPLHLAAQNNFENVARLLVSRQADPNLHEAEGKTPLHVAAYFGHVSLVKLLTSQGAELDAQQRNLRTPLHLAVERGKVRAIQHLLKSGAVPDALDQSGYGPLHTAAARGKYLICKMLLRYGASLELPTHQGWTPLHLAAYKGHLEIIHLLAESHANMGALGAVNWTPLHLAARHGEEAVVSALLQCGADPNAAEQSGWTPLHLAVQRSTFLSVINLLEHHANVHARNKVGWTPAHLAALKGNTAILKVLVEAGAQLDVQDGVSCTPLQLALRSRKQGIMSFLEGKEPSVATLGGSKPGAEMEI

[3] = biological target: SRSF protein kinase 2 (Homo sapiens) (UniProt P78362); assay: Selectivity interaction (KinomeScan (DiscoverX)) EUB0001049a SRPK2; settings: at 1 µM
[4] = biological target: Dual specificity mitogen-activated protein kinase kinase 1 (Homo sapiens, UniProt Q02750); assay: Selectivity interaction (KinomeScan (DiscoverX)) EUB0000045b MAP2K1
Dual specificity mitogen-activated protein kinase kinase 1, sequence (Q02750 whole entry): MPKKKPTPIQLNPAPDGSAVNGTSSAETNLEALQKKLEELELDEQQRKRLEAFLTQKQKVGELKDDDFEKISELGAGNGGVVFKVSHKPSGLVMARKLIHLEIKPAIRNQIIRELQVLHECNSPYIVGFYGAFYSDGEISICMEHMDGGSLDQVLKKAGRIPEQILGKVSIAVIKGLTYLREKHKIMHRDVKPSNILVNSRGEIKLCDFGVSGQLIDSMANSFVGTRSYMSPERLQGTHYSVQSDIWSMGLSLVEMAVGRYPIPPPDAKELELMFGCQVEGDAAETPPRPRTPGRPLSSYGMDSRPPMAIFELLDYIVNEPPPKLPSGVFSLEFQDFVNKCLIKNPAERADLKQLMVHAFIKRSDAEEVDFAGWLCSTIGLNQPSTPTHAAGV

SRSF protein kinase 2 (Homo sapiens), sequence (P78362 whole entry, looked up): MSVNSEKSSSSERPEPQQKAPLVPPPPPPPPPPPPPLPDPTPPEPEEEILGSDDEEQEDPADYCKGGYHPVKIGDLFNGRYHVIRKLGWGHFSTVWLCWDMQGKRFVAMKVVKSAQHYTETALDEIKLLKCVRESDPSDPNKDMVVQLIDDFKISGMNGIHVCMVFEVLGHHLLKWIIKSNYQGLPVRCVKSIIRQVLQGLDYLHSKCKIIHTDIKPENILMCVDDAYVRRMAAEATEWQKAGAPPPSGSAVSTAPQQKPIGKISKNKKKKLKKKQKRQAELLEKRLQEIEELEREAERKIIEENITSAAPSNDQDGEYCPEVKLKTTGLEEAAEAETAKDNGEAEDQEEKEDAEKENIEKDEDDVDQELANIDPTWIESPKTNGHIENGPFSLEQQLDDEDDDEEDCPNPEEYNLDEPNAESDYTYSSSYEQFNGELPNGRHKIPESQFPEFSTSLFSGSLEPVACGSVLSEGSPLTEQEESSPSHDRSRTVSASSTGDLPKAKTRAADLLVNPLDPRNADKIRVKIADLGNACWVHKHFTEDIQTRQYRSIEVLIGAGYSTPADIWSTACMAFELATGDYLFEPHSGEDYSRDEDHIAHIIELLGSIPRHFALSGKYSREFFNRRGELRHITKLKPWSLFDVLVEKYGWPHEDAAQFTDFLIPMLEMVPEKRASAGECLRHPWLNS

CCN(CC)CCCCNc1ncc2cc(-c3cc(OC)cc(OC)c3)c(NC(=O)NC(C)(C)C)nc2n1
% of control [1]: 100%

Cc1cc([C@@H](C)Nc2ccccc2C(=O)O)c2nc(N3CCOCC3)cc(=O)n2c1 [AZD-6482]
% of control [2]: 100%

COc1cc(Nc2nc(C)cc(-c3cnn4nc(OC)ccc34)n2)cc(C(F)(F)F)c1
% of control [3]: 100%

C=CC(=O)Nc1cc(-n2c(=O)ccc3cnc4ccc(-c5ccc(NS(C)(=O)=O)cc5)cc4c32)ccc1C
% of control ([4]; at 1 µM): 100% | % of control ([4]; at 10 µM): 65%
